These results are taken from ChEMBL document CHEMBL1201862, “PubChem BioAssay data set” (2004).

Molecules are shown by their SMILES.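 Values below derive from 48-hour exposures of cells grown in 96-well plates, with endpoints linearly interpolated between the two concentrations bracketing the appropriate inhibition level. Abbreviation: GI50, concentration required for 50% inhibition of growth.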 Calls of active or inactive are those of the source. Rule as the data show it: active = GI50 up to about 1.1 µM and inactive = higher.

Common to all, as to assay: NCI tumour cell line growth inhibition, 48 h
Experiment [1] concerns A549.
The test system of experiment [2] is CCRF-CEM.
Experiment [3] has as its system DU-145.
The subject of experiment [4] is HOP-62.
Experiment [5] deals with Hs-578T.
Experiment [6] relates to KM12.
For experiment [7], the system named is LOX IMVI.
In experiment [8] the test system is M14.
In experiment [9] the test system is NCI-H23.
For experiment [10], the system named is NCI-H522.
Experiment [11] deals with NCI/ADR-RES.
In experiment [12] the test system is OVCAR-5.
Experiment [13] concerns PC-3.
Experiment [14] relates to RXF 393.
Experiment [15] relates to SF-295.
The test system of experiment [16] is SK-MEL-28.
The subject of experiment [17] is SK-MEL-5.
For experiment [18], the system named is SW-620.
Experiment [19] concerns TK-10.
The test system of experiment [20] is U-251.

For the compound `COc1cc2c(cc1OC)C1Cc3ccccc3CN1CCC2` (stereo not given), the GI50 in experiment [1] is > 100 µM (inactive); in [2], 46.9 µM (inactive); in experiment [3] it was > 100 µM (inactive); in experiment [4], > 100 µM (inactive); in experiment [5], 93.1 µM (inactive); in experiment [6], > 100 µM (inactive). Further, the GI50 is > 100 µM (inactive) in experiment [7]; 93.5 µM (inactive) in [8]; > 100 µM (inactive) in experiment [9]; > 100 µM (inactive) in experiment [10]; > 100 µM (inactive) in [11]; > 100 µM (inactive) in experiment [12]. Further, the GI50 in experiment [13], in [14], in experiment [15], in experiment [16], in experiment [17] and in [18] was > 100 µM (inactive) in each case. Moreover, the GI50 in experiment [19] and in experiment [20] was > 100 µM (inactive) throughout.
With `CC1(C)CC2C(=O)c3ccccc3NC2c2ccccc21` (stereo not given), the GI50 in [1] was 6.11 µM (inactive); in experiment [2], 4.34 µM (inactive); in [3], 3.6 µM (inactive); in experiment [4], 3.75 µM (inactive); in [5], 2.87 µM (inactive); in experiment [6], 4.3 µM (inactive). The GI50 was 4.76 µM (inactive) in experiment [7]; 5.28 µM (inactive) in [8]; 4.98 µM (inactive) in experiment [9]; 1.53 µM (inactive) in experiment [10]; 3.49 µM (inactive) in experiment [11]; > 26.2 µM (inactive) in experiment [12]. Moreover, the GI50 is 3.6 µM (inactive) in experiment [13]; 1.87 µM (inactive) in experiment [14]; 1.84 µM (inactive) in experiment [15]; 5.51 µM (inactive) in [16]; 3.5 µM (inactive) in experiment [17]; 3.9 µM (inactive) in [18]. For the same compound, the GI50 in experiment [19] is 12 µM (inactive); in experiment [20], 5.47 µM (inactive).
In the case of `O[C@H]1[C@H](O)[C@@H](O)[C@@]2(O)C[C@@H](O)[C@@H]1N2`, the GI50 in experiment [1], in [2], in experiment [3], in experiment [4], in experiment [5] and in [6] was > 100 µM (inactive) each time. For the same compound, the GI50 in experiment [7] was > 100 µM (inactive); in [8], > 100 µM (inactive); in experiment [9], > 100 µM (inactive); in experiment [10], > 100 µM (inactive); in [11] it was > 100 µM (inactive); in [12], > 10 µM (inactive). Moreover, the GI50 in experiment [13], in [14], in experiment [15], in experiment [16], in experiment [17] and in experiment [18] was > 100 µM (inactive) in each case. Besides, the GI50 in [19] and in experiment [20] was > 100 µM (inactive) throughout.
Consider `CC1=CC(=O)/C(=C/NC(=S)C(N)=S)C(=O)O1`, for which the GI50 in experiment [1] was > 100 µM (inactive); in [2], 44 µM (inactive); in experiment [3] it was > 100 µM (inactive); in [4] it was > 100 µM (inactive); in experiment [5], > 100 µM (inactive); in experiment [6], > 100 µM (inactive). The GI50 in experiment [7], in [8], in [9], in experiment [10], in experiment [11] and in [12] was > 100 µM (inactive) each time. Besides, the GI50 in experiment [13], in experiment [14], in experiment [15], in experiment [16], in experiment [17] and in experiment [18] was > 100 µM (inactive) in each case. Moreover, the GI50 in experiment [19] and in experiment [20] was > 100 µM (inactive) in each case.
For the compound `COC(=O)C1(C(=O)OC)CC2=C(S(=O)(=O)c3ccccc3)C[C@H](C#N)[C@H]2C1`, the GI50 in experiment [1], in [2], in experiment [3], in experiment [4], in experiment [5] and in [6] was > 100 µM (inactive) in each case. Besides, the GI50 in experiment [7] is > 100 µM (inactive); in experiment [8] it was > 100 µM (inactive); in [9], > 100 µM (inactive); in experiment [10], 46.3 µM (inactive); in [11], > 100 µM (inactive); in [12], > 100 µM (inactive). Also, the GI50 in experiment [13], in experiment [14], in [15], in experiment [16], in experiment [17] and in experiment [18] was > 100 µM (inactive) each time. Moreover, the GI50 in experiment [19] and in experiment [20] was > 100 µM (inactive) throughout.
Consider `CC1(C)C(=O)N(O)C(C)(C)N1O`, for which the GI50 in experiment [1], in experiment [2], in experiment [3], in [4], in experiment [5] and in experiment [6] was > 10 µM (inactive) each time. The GI50 in experiment [7], in [8], in experiment [9], in [10], in experiment [11] and in experiment [12] was > 10 µM (inactive) in each case. Further, the GI50 in experiment [13], in [14], in [15], in experiment [16], in experiment [17] and in experiment [18] was > 10 µM (inactive) in each case. Further, the GI50 in experiment [19] and in [20] was > 10 µM (inactive) each time.
Consider `C/C(=C\COP(=O)(O)OP(=O)(O)O)CC/C=C(\C)CNc1c(F)c(F)c(F)c(F)c1F`, for which the GI50 is > 48.6 µM (inactive) in [1]; 0.126 µM (active) in experiment [2]; > 67.6 µM (inactive) in experiment [3]; > 100 µM (inactive) in experiment [4]; 31 µM (inactive) in [5]; > 100 µM (inactive) in experiment [6]. For the same compound, the GI50 in experiment [7], in [8], in experiment [9], in experiment [10], in [11] and in experiment [12] was > 100 µM (inactive) each time. Moreover, the GI50 in [13] is 67.3 µM (inactive); in [14], > 22.9 µM (inactive); in [15], > 52.8 µM (inactive); in experiment [16] it was > 100 µM (inactive); in [17] it was > 100 µM (inactive); in experiment [18], > 84.7 µM (inactive). The GI50 in experiment [19] is > 51.1 µM (inactive); in experiment [20], > 100 µM (inactive).
For the compound `NC(=O)c1cccc(/N=c2\oc3ccc(Br)cc3cc2-c2nc3ccccc3[nH]2)c1`, the GI50 in experiment [1] is 13.1 µM (inactive); in experiment [2], 2.61 µM (inactive); in experiment [3], 15.5 µM (inactive); in experiment [4], 16.2 µM (inactive); in [5], 27.4 µM (inactive); in experiment [6], 18.5 µM (inactive). Moreover, the GI50 is 16.1 µM (inactive) in experiment [7]; 15.7 µM (inactive) in experiment [8]; 16 µM (inactive) in experiment [9]; 22.1 µM (inactive) in [10]; 12.1 µM (inactive) in [11]; 16.3 µM (inactive) in experiment [12]. Besides, the GI50 was 14.3 µM (inactive) in [13]; 22 µM (inactive) in experiment [14]; 15.8 µM (inactive) in [15]; > 100 µM (inactive) in experiment [16]; 1.81 µM (inactive) in experiment [17]; 15.3 µM (inactive) in experiment [18]. The GI50 in experiment [19] is 17 µM (inactive); in [20], 13.2 µM (inactive).
Turning to `Cc1nc(O)nc2nc3ccc(Cl)cc3c(N(CCO)CCO)c12`, the GI50 is > 100 µM (inactive) in [1]; > 100 µM (inactive) in experiment [2]; > 100 µM (inactive) in experiment [3]; > 100 µM (inactive) in [4]; 10.7 µM (inactive) in experiment [5]; 40 µM (inactive) in experiment [6]. Also, the GI50 in experiment [7] was > 100 µM (inactive); in experiment [8] it was > 100 µM (inactive); in experiment [9] it was > 100 µM (inactive); in experiment [10], 24 µM (inactive); in experiment [11], > 100 µM (inactive); in [12], > 100 µM (inactive). The GI50 in experiment [13] is > 100 µM (inactive); in experiment [14], 73.6 µM (inactive); in [15], > 100 µM (inactive); in experiment [16], > 100 µM (inactive); in [17], > 100 µM (inactive); in experiment [18], > 100 µM (inactive). The GI50 in [19] and in experiment [20] was > 100 µM (inactive) throughout.
As for `CN(C)CCNc1ccc2c(=O)n(CCN(C)C)c(=O)n3c4ccc([N+](=O)[O-])cc4c(=O)c1c23`, the GI50 in experiment [1] was 0.184 µM (active); in experiment [2], 0.0382 µM (active); in experiment [3] it was 0.267 µM (active); in [4], 0.384 µM (active); in experiment [5], 1.01 µM (active); in experiment [6], 0.518 µM (active). Also, the GI50 was 0.178 µM (active) in [7]; 1 µM (active) in experiment [8]; 0.177 µM (active) in experiment [9]; 0.08 µM (active) in experiment [10]; 0.251 µM (active) in [11]; 0.532 µM (active) in [12]. The GI50 in experiment [13] is 0.482 µM (active); in experiment [14] it was 0.198 µM (active); in experiment [15] it was 0.359 µM (active); in [16], 1.04 µM (active); in experiment [17], 1.04 µM (active); in experiment [18], 0.0524 µM (active). Further, the values for the GI50 in [19] and in experiment [20] were 1.09 µM (active) and 0.34 µM (active), respectively.
